The target in assay [1] is T1, p38α MAPK insert (Homo sapiens, UniProt Q16539, C119S/C162S/S252C).
T1 construct: His-tag with PreScission Protease cleavage site (N); made in house; host or cells: E. coli BL21(DE3) Codon+RIL
Description: FLiK direct binding assay, acrylodan-labeled p38α (S252C) MAPK insert / lipid binding site. The note with it: binding to p38α MAPK insert; ratiometric acrylodan emission; each concentration in triplicate. Here is the method: The human p38α kinase construct containing the mutations required for specific labeling (C119S/C162S/S252C) as well as wild type p38α were cloned into a pOPINF vector and transformed as an N-terminal His-tag construct with a PreScission Protease cleavage site into BL21(DE3) Codon+RIL E. coli. Protein expression, purification, fluorophore labeling and verification of mono-labeling of the kinase were performed essentially as described previously. Labeling of the mutant p38α protein with thiol-reactive acrylodan was carried out by adding a 1.5∶1 molar excess of the fluorophore (dissolved in DMSO) to the purified protein in 50 mM Hepes Buffer (pH 7.0). The mixture was allowed to react in the dark overnight at 4°C. Unreacted acrylodan was subsequently removed by three cycles of buffer exchange into FLiK Measurement Buffer (50 mM Hepes Buffer, pH 7.4+200 mM NaCl) using a 10k-MWCO Centricon. The protein was concentrated to ∼200 μM, aliquoted and frozen at −80°C. Mono-labeling of the protein was verified by ESI-MS as described previously, [24].
Characterization of the fluorescence response of MAP insert-labeled p38α was carried out as described previously for p38α labeled on the activation loop. […] Briefly, a polystyrene cuvette containing a suspension of 50 nM acrylodan-labeled p38α in FLiK Buffer was excited at 386 nm and emission spectra were measured in the absence and presence of increasing concentrations of 1b. The compound was dissolved in 100% DMSO and delivered in sequential small doses to a single sample. […] Ratiometric fluorescence readouts are advantageous in that they provide an internal correction for small errors in sample volume which can affect signal intensity. All measurements of the cuvettes were made with a JASCO FP-6500 fluorescence spectrophotometer (JASCO GmbH, Germany).
The assay was adapted to high-throughput screening formats which enabled KD values to be determined in black small volume assay plates. Briefly, a dilution series of each compound was first prepared in 100% DMSO at 20X the desired final concentration and 1 μL was transferred to the assay plate. Compounds were then mixed with 19 µL of FLiK Buffer (supplemented with 0.01% Triton X-100) containing acrylodan-labeled p38α (100 nM). The final concentration of compound in the dilution series ranged from 0–50 μM (5% v/v DMSO final). Plates were covered with an adhesive aluminum foil and incubated for 30 min at RT prior to measurement of emission intensities at 470 and 520 nm using a Tecan Safire^2 plate reader. […] Binding curves were plotted using the ratio R = I520/I470 to determine the KD.

Assay [2] deals with panel of 95 different kinases. Nature of the assay: Kinase selectivity profile, 33P-ATP filter-binding assay (whole panel). It counts as biochemical. The note with it: 10 µM; 95 kinases. Here is the method: Figure 5 Kinase selectivity profile of 1b. Compound 1b was profiled against a selected panel of 95 different kinases at a concentration of 10 µM employing a radioactive (^33P-ATP) filter-binding assay (National Centre for Protein Kinase Profiling, Dundee). The numbers represent the remaining kinase activity in %. […]

Assay [3] concerns the target p38γ MAPK (Homo sapiens, UniProt P53778). Description: Kinase selectivity profile, 33P-ATP filter-binding assay. In kind it is biochemical. Here is the method: (§1) Figure 5 Kinase selectivity profile of 1b. Compound 1b was profiled against a selected panel of 95 different kinases at a concentration of 10 µM employing a radioactive (^33P-ATP) filter-binding assay (National Centre for Protein Kinase Profiling, Dundee). The numbers represent the remaining kinase activity in %. […] TEXT PRINTED IN THE PICTURE: no label printed: Aurora B: 53; MNK2: 67; MINK1: 69; HER4: 71; MKK1: 75; PKBβ: 75; PHK: 76; PIM2: 76; PIM3: 77; CHK2: 78; PKD1: 79; TBK1: 79; PAK4: 80; Lck: 80; GSK3β: 80; IGF-1R: 81; p38δ MAPK: 81; PIM1: 82; SRPK1: 83; SmMLCK: 83; MAPKAP-K3: 84; EPH A2: 85; MELK: 85; CK2: 85; CK1: 86; CAMK1: 86; PLK1: 87; MST2: 87; IR-HIS: 87; BTK: 87; HIPK1: 87; p38α MAPK: 88; DYRK2: 88; JNK3: 88; PAK5: 88; IKKε: 89; p38β MAPK: 89; NUAK1: 90; PAK2: 90; MNK1: 91; ERK8: 91; GCK: 91; PRAK: 91; MLK1: 92; SGK1: 92; PAK6: 92; TTK: 92; BRSK2: 92; MARK4: 93; CHK1: 93; RIPK2: 94; CDK2-Cyclin A: 94; JNK1: 94; AMPK: 94; VEG-FR: 95; DYRK1A: 95; CAMKKβ: 95; PKCα: 96; S6K1: 96; MSK1: 96; PKCz: 96; YES1: 96; RSK1: 97; IRAK4: 97; DYRK3: 97; IKKβ: 97; ERK2: 98; MLK3: 98; RSK2: 98; LKB1: 98; MAPKAP-K2: 98; ERK1: 99; FGF-R1: 99; SYK: 99; MST4: 99; MARK3: 99; MARK2: 100; PDK1: 100; JNK2: 101; HIPK2: 101; BRSK1: 102; EF2K: 102; PRK2: 103; Aurora A: 104; IRR: 104; CSK: 104; PKA: 104; NEK6: 105; p38γ MAPK: 105; Src: 107; PKBα: 109; ROCK 2: 109; EPH-B3: 112; HIPK3: 115; NEK2α: 119 DOUBTS OF THE COPYIST ABOUT THIS PICTURE: The picture prints no compound label and no measure or unit for the numbers; only the colour scale 'Inhibition weak/strong' is printed. / PKCz: the last letter may be z or ζ / NEK2α: the last letter may be a or α / IKKε: the last letter may be ε or e

Assay [4] deals with PAK2 (Homo sapiens, UniProt Q13177). The assay is described as above. In kind it is biochemical. Here is the method:
as §1

Assay [5] concerns the target EPH A2 (Homo sapiens, UniProt P29317). Described as above. In kind it is biochemical. On the procedure:
as §1

Assay [6] addresses CSK (Homo sapiens, UniProt P41240). The assay is described as above. In kind it is biochemical. On the procedure:
as §1

The target of assay [7] is MINK1 (Homo sapiens, UniProt Q8N4C8). The assay is described as above. It counts as biochemical. On the procedure: as §1
Sequence of MINK1 (Q8N4C8 whole entry): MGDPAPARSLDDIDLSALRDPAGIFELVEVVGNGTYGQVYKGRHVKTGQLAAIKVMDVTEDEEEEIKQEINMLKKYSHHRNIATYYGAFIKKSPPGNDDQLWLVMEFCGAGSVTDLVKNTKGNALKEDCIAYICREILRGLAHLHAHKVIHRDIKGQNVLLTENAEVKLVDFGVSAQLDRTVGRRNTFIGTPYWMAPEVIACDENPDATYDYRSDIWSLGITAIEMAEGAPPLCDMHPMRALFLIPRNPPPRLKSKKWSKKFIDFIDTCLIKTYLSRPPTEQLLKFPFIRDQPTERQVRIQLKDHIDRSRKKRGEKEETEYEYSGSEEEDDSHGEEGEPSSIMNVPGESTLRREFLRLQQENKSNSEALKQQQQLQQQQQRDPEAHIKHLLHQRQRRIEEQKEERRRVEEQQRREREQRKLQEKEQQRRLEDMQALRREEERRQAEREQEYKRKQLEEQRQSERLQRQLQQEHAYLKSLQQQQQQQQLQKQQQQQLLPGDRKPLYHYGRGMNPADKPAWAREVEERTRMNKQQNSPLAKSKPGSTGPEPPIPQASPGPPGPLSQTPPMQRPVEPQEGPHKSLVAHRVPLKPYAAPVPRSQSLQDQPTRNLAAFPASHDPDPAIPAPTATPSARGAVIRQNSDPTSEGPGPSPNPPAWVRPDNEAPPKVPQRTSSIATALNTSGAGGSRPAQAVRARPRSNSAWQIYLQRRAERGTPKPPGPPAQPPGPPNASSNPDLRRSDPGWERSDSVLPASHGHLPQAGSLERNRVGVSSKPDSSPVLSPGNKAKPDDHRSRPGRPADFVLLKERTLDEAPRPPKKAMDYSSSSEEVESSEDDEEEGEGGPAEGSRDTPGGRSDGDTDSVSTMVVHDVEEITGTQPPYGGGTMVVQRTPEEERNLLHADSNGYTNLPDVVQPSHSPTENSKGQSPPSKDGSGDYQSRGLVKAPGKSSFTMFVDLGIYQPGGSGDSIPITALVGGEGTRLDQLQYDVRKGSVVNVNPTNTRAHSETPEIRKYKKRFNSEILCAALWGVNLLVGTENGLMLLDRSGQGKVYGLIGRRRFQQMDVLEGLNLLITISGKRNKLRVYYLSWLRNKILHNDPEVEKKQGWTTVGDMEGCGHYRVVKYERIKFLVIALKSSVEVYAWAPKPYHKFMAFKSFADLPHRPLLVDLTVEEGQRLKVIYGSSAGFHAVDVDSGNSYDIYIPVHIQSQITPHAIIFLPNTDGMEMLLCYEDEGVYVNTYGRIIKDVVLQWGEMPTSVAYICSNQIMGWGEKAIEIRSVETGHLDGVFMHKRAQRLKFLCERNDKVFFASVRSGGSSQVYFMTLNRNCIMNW
For assay [8], the target named is DYRK3 (Homo sapiens, UniProt O43781). The assay is described as above. It counts as biochemical. On the procedure: as §1
Sequence of DYRK3 (O43781 whole entry): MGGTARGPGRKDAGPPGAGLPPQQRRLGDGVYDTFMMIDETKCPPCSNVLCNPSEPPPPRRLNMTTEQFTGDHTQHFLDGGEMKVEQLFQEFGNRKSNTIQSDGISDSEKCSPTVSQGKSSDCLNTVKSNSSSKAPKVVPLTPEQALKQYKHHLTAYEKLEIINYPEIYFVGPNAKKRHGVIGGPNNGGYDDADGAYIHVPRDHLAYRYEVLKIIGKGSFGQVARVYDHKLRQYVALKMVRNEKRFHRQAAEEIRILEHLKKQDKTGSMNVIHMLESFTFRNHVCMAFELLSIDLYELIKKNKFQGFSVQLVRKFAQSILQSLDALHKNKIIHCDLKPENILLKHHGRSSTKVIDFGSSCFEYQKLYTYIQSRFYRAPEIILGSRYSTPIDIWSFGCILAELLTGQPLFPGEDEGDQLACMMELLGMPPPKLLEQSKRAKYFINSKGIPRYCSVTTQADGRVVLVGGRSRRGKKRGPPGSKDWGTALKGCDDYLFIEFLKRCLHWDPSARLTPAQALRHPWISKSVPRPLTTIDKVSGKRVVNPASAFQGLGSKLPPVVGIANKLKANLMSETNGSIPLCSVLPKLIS
Assay [9] has as its target PKBβ (Homo sapiens, UniProt P31751). Described as above. In kind it is biochemical. Here is the method: as §1
In assay [10] the target is FGF-R1 (Homo sapiens, UniProt P11362). The assay is described as above. In kind it is biochemical. Here is the method:
as §1

Several values for one entry are separate records, joined by “and”; a condition that tells them apart may be missing. Equal entries are not always repeated.

T1 sequence (Q16539 whole entry C119S/C162S/S252C): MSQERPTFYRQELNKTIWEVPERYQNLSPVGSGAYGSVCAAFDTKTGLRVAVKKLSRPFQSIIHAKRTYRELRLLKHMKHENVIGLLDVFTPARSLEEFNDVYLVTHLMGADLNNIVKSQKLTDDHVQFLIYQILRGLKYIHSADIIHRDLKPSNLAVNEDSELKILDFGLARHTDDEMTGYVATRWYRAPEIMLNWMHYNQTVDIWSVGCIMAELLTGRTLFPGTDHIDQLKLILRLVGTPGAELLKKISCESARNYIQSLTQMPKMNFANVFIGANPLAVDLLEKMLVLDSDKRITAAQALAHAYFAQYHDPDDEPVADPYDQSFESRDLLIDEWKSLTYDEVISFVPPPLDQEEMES
Sequence of PKBβ (P31751 whole entry): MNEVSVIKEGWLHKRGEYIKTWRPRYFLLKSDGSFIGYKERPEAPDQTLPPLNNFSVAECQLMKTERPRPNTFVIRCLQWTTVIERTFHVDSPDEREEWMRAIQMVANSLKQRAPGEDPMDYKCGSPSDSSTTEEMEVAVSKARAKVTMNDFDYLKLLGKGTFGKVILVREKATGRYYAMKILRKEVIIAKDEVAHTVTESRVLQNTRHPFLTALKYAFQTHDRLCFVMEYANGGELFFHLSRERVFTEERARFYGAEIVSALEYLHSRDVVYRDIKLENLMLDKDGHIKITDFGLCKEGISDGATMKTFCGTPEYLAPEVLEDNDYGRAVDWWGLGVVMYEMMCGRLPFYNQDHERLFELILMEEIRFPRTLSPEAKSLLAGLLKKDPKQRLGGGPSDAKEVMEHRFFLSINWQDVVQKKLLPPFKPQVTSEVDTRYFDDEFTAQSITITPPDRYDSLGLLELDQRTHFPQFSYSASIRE
Sequence of EPH A2 (P29317 24-976): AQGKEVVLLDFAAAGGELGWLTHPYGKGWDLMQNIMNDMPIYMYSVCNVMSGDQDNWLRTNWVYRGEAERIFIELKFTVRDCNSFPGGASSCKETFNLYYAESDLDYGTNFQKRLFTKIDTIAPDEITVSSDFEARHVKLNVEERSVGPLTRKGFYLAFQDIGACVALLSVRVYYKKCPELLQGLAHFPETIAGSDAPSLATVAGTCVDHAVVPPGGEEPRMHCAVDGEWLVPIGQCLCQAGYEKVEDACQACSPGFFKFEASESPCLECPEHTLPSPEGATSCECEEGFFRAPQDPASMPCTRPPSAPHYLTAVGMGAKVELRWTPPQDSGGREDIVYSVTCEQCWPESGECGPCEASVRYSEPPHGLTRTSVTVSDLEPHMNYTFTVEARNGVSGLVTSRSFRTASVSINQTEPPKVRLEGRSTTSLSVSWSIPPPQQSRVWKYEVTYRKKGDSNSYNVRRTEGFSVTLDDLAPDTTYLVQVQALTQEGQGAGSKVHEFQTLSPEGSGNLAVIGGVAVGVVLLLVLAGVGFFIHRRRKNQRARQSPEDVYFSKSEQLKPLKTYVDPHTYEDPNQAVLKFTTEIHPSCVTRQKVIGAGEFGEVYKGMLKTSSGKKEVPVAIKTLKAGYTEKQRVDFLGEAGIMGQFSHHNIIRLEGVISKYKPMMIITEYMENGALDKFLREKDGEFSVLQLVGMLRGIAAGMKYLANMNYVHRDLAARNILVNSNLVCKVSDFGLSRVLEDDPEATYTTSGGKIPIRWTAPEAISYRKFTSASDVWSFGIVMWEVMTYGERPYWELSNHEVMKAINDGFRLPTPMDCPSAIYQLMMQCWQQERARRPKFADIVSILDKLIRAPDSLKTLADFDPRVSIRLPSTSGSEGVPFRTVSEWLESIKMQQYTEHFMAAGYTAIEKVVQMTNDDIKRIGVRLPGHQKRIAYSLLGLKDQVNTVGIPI
Sequence of p38γ MAPK (P53778 whole entry): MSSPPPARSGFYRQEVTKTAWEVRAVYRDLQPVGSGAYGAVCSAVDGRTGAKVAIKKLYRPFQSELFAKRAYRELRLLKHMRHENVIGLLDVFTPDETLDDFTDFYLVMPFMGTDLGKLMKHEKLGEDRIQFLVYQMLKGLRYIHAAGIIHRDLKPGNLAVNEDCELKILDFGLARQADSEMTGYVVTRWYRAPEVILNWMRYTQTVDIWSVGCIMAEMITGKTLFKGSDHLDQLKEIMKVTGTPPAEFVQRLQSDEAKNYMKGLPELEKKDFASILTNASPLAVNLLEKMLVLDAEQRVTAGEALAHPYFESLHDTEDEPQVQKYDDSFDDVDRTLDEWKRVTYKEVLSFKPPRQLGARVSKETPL
Sequence of CSK (P41240 whole entry): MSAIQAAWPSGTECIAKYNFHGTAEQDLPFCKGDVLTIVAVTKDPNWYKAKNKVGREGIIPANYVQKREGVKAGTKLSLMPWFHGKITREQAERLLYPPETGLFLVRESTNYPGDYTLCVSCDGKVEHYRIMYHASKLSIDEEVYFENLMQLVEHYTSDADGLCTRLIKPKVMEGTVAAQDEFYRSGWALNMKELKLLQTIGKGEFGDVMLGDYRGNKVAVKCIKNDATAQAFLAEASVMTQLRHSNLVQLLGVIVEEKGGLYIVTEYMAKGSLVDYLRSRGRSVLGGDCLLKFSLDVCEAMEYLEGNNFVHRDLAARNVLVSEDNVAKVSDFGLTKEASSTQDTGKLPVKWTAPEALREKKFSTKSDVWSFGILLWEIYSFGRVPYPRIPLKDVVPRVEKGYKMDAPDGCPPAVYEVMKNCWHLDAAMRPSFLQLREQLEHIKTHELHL

The Kd is the constant that tells how readily two partners part at equilibrium. In general, remaining activity refers to the signal under treatment as a percentage of the control signal. In the case of `Nc1ccc2c(NC3CC3)nc(-c3ccccc3)nc2c1` [1b, N^4-Cyclopropyl-2-phenyl-4,7-quinazolinediamine], the Kd in assay [1] was ~2400 nM and 2400 nM. In assay [2], the “inhibition of enzymatic activity across kinase panel” value is listed as “does not inhibit enzymatic activity of any of the tested kinases”. Also, the remaining activity at 10 µM was 105% in [3]; 90% in [4]; 85% in [5]; 104% in [6]; 69% in assay [7]; 97% in [8]. For the same compound, the remaining activity at 10 µM amounted to 75% in assay [9] and 99% in [10].

The values are drawn from publication PMC3388095, “Fluorophore Labeled Kinase Detects Ligands That Bind within the MAPK Insert of p38α Kinase” (PLoS ONE, 2012).
